Patent US11274332B2, “Methods of administering 3,4-diaminopyridine” (SERB SA, priority 2011, dated 2022)
Values joined by “and” are separate entries in the source; they are usually repeats but may differ in a detail not shown here. Equal values may be shown once.

Experiment: Food-effect crossover study, adverse events after single 20 mg amifampridine phosphate in healthy subjects (Examples 10, 11)
Assay type: in vivo
Procedure: This was a randomized, open-label, 2-treatment, 2-period crossover study with 44 completed subjects to assess the safety, tolerability, and the effect of food on the relative bioavailability of a single dose of amifampridine phosphate.
Safety was evaluated for all subjects who take at least one dose of 3,4-DAP. Safety was evaluated by recording the incidence of adverse events (AEs), physical examination, vital signs, concomitant medications, clinical laboratory assessments, and 12-lead electrocardiogram (ECG).
Analysis for the following safety parameters was carried out on the Safety Population: AEs which included all AEs, AEs by severity, drug-related AEs, deaths, SAEs, AEs leading to study discontinuation, and most frequent AEs, standard clinical laboratory tests, vital signs, ECG measurements, routine physical examinations, and prior and concomitant medications. The cut-off for frequency of AEs reported was determined based on the data. No formal statistical testing was performed for the safety analyses; only descriptive statistics were provided. Appropriate descriptive statistics for the safety data were determined using SAS Version 9.2.
AEs were coded according to the Medical Dictionary for Regulatory Activities (MedDRA; Version 13.0). […] The occurrence of AEs was assessed continuously from the time the subject signed the VID and consent. The reporting period for non-serious AEs was from the first dose to the final study visit. The investigator determined the severity of each event and the relationship of an AE to the IP and recorded it on the source documents and AE CRF. The nature, time of onset, duration, severity, and relationship to study drug was documented, including documentation of investigator assessment and review. All events were assessed to determine if the AE was serious.
The Investigator determined the severity of each event and the event was recorded on the source documents and AE CRF. A coding of “mild” meant there was no limitation of usual activities, “moderate” meant there was some limitation of usual activities, “severe” meant there was an inability to carry out usual activities.
The reporting period for AEs that met the criteria of an SAE began from the time of signing the VID and consent form through follow-up or early termination. […] Clinical Laboratory Assessments

Nc1ccncc1N.O=P(O)(O)O [amifampridine phosphate, 3,4-diaminopyridine phosphate]
Abdominal Pain Upper, drug-related AE: % of subjects (Fasted N=45): 4% | Abdominal Pain Upper, drug-related AE: events (Fasted N=45): 2 | Abdominal Pain Upper, drug-related AE: subjects (Fasted N=45): 2 | Abdominal Pain, drug-related AE: % of subjects (Fasted N=45): 7% | Abdominal Pain, drug-related AE: events (Fasted N=45): 3 | Abdominal Pain, drug-related AE: subjects (Fasted N=45): 3 | Abdominal Tenderness, drug-related AE: % of subjects (Fasted N=45): 2% | Abdominal Tenderness, drug-related AE: events (Fasted N=45): 1 | Abdominal Tenderness, drug-related AE: subjects (Fasted N=45): 1 | Acne, drug-related AE: % of subjects (Fasted N=45): 2% | Acne, drug-related AE: events (Fasted N=45): 1 | Acne, drug-related AE: subjects (Fasted N=45): 1 | All treatment emergent AEs, Mild: % of subjects (Fasted N=45): 53% | All treatment emergent AEs, Mild: events (Fasted N=45): 60 | All treatment emergent AEs, Mild: subjects (Fasted N=45): 24 | All treatment emergent AEs, Moderate: % of subjects (Fasted N=45): 2% | All treatment emergent AEs, Moderate: events (Fasted N=45): 1 | All treatment emergent AEs, Moderate: subjects (Fasted N=45): 1 | All treatment emergent AEs, Severe: % of subjects (Fasted N=45): (0%) [0] | All treatment emergent AEs, Severe: events (Fasted N=45): (0%) [0] | All treatment emergent AEs, Severe: subjects (Fasted N=45): 0 | All treatment emergent AEs, Total: events (Fasted N=45): 61 | Constipation, drug-related AE: % of subjects (Fasted N=45): (0%) [0] | Constipation, drug-related AE: events (Fasted N=45): (0%) [0] | Constipation, drug-related AE: subjects (Fasted N=45): 0 | Diarrhoea, drug-related AE: % of subjects (Fasted N=45): 2% | Diarrhoea, drug-related AE: events (Fasted N=45): 1 | Diarrhoea, drug-related AE: subjects (Fasted N=45): 1 | Discontinued due to adverse events: % of subjects (Fasted N=45): (0%) [0] | Discontinued due to adverse events: events (Fasted N=45): (0%) [0] | Discontinued due to adverse events: subjects (Fasted N=45): 0 | Dizziness, drug-related AE: % of subjects (Fasted N=45): 11% | Dizziness, drug-related AE: events (Fasted N=45): 5 | Dizziness, drug-related AE: subjects (Fasted N=45): 5 | Dysgeusia, drug-related AE: % of subjects (Fasted N=45): 2% | Dysgeusia, drug-related AE: events (Fasted N=45): 1 | Dysgeusia, drug-related AE: subjects (Fasted N=45): 1 | Fatigue, drug-related AE: % of subjects (Fasted N=45): 2% | Fatigue, drug-related AE: events (Fasted N=45): 1 | Fatigue, drug-related AE: subjects (Fasted N=45): 1 | Feeling Hot, drug-related AE: % of subjects (Fasted N=45): 2% | Feeling Hot, drug-related AE: events (Fasted N=45): 1 | Feeling Hot, drug-related AE: subjects (Fasted N=45): 1 | Flushing, drug-related AE: % of subjects (Fasted N=45): (0%) [0] | Flushing, drug-related AE: events (Fasted N=45): (0%) [0] | Flushing, drug-related AE: subjects (Fasted N=45): 0 | Gastrointestinal Disorders Total, drug-related AE: % of subjects (Fasted N=45): 16% | Gastrointestinal Disorders Total, drug-related AE: events (Fasted N=45): 10 | Gastrointestinal Disorders Total, drug-related AE: subjects (Fasted N=45): 7 | General Disorders and Administration Site Conditions Total, drug-related AE: % of subjects (Fasted N=45): 4% | General Disorders and Administration Site Conditions Total, drug-related AE: events (Fasted N=45): 2 | General Disorders and Administration Site Conditions Total, drug-related AE: subjects (Fasted N=45): 2 | Headache, drug-related AE: % of subjects (Fasted N=45): 9% | Headache, drug-related AE: events (Fasted N=45): 4 | Headache, drug-related AE: subjects (Fasted N=45): 4 | Hypoaesthesia Facial, drug-related AE: % of subjects (Fasted N=45): 2% | Hypoaesthesia Facial, drug-related AE: events (Fasted N=45): 1 | Hypoaesthesia Facial, drug-related AE: subjects (Fasted N=45): 1 | Hypoaesthesia Oral, drug-related AE: % of subjects (Fasted N=45): 7% | Hypoaesthesia Oral, drug-related AE: events (Fasted N=45): 3 | Hypoaesthesia Oral, drug-related AE: subjects (Fasted N=45): 3 | Hypoaesthesia, drug-related AE: % of subjects (Fasted N=45): 4% | Hypoaesthesia, drug-related AE: events (Fasted N=45): 2 | Hypoaesthesia, drug-related AE: subjects (Fasted N=45): 2 | Nausea, drug-related AE: % of subjects (Fasted N=45): 7% | Nausea, drug-related AE: events (Fasted N=45): 3 | Nausea, drug-related AE: subjects (Fasted N=45): 3 | Nervous System Disorders Total, drug-related AE: % of subjects (Fasted N=45): 47% | Nervous System Disorders Total, drug-related AE: events (Fasted N=45): 43 | Nervous System Disorders Total, drug-related AE: subjects (Fasted N=45): 21 | Paraesthesia Oral, drug-related AE: % of subjects (Fasted N=45): 29% | Paraesthesia Oral, drug-related AE: events (Fasted N=45): 15 | Paraesthesia Oral, drug-related AE: subjects (Fasted N=45): 13 | Paraesthesia, drug-related AE: % of subjects (Fasted N=45): 22% | Paraesthesia, drug-related AE: events (Fasted N=45): 12 | Paraesthesia, drug-related AE: subjects (Fasted N=45): 10 | Possibly or probably related AEs, Mild: % of subjects (Fasted N=45): 47% | Possibly or probably related AEs, Mild: events (Fasted N=45): 55 | Possibly or probably related AEs, Mild: subjects (Fasted N=45): 21 | Possibly or probably related AEs, Moderate: % of subjects (Fasted N=45): 2% | Possibly or probably related AEs, Moderate: events (Fasted N=45): 1 | Possibly or probably related AEs, Moderate: subjects (Fasted N=45): 1 | Possibly or probably related AEs, Severe: % of subjects (Fasted N=45): (0%) [0] | Possibly or probably related AEs, Severe: events (Fasted N=45): (0%) [0] | Possibly or probably related AEs, Severe: subjects (Fasted N=45): 0 | Possibly or probably related AEs, Total: % of subjects (Fasted N=45): 47% | Possibly or probably related AEs, Total: events (Fasted N=45): 56 | Possibly or probably related AEs, Total: subjects (Fasted N=45): 21 | Serious adverse events: % of subjects (Fasted N=45): (0%) [0] | Serious adverse events: events (Fasted N=45): (0%) [0] | Serious adverse events: subjects (Fasted N=45): 0 | Skin and Subcutaneous Tissue Disorders Total, drug-related AE: % of subjects (Fasted N=45): 2% | Skin and Subcutaneous Tissue Disorders Total, drug-related AE: events (Fasted N=45): 1 | Skin and Subcutaneous Tissue Disorders Total, drug-related AE: subjects (Fasted N=45): 1 | Vascular Disorders Total, drug-related AE: % of subjects (Fasted N=45): (0%) [0] | Vascular Disorders Total, drug-related AE: events (Fasted N=45): (0%) [0] | Vascular Disorders Total, drug-related AE: subjects (Fasted N=45): 0 | All treatment emergent AEs, Total: subjects (Fasted N=45, phosphate): 23 and 24 | Abdominal Pain Upper, drug-related AE: % of subjects (Fed N=46): (0%) [0] | Abdominal Pain Upper, drug-related AE: events (Fed N=46): (0%) [0] | Abdominal Pain Upper, drug-related AE: subjects (Fed N=46): 0 | Abdominal Pain, drug-related AE: % of subjects (Fed N=46): (0%) [0] | Abdominal Pain, drug-related AE: events (Fed N=46): (0%) [0] | Abdominal Pain, drug-related AE: subjects (Fed N=46): 0 | Abdominal Tenderness, drug-related AE: % of subjects (Fed N=46): (0%) [0] | Abdominal Tenderness, drug-related AE: events (Fed N=46): (0%) [0] | Abdominal Tenderness, drug-related AE: subjects (Fed N=46): 0 | Acne, drug-related AE: % of subjects (Fed N=46): (0%) [0] | Acne, drug-related AE: events (Fed N=46): (0%) [0] | Acne, drug-related AE: subjects (Fed N=46): 0 | All treatment emergent AEs, Mild: % of subjects (Fed N=46): 48% | All treatment emergent AEs, Mild: events (Fed N=46): 38 | All treatment emergent AEs, Mild: subjects (Fed N=46): 22 | All treatment emergent AEs, Moderate: % of subjects (Fed N=46): 2% | All treatment emergent AEs, Moderate: events (Fed N=46): 1 | All treatment emergent AEs, Moderate: subjects (Fed N=46): 1 | All treatment emergent AEs, Severe: % of subjects (Fed N=46): 2% | All treatment emergent AEs, Severe: events (Fed N=46): 1 | All treatment emergent AEs, Severe: subjects (Fed N=46): 1 | All treatment emergent AEs, Total: events (Fed N=46): 40 | Constipation, drug-related AE: % of subjects (Fed N=46): 2% | Constipation, drug-related AE: events (Fed N=46): 1 | Constipation, drug-related AE: subjects (Fed N=46): 1
